Measured values from patent US20170196834A1, “PREPARATION AND APPLICATION OF FLAVONOL AS BRAIN-TARGETING SYNERGIST” (GUANGDONG PHARMACEUTICAL UNIVERSITY, priority 2014, published 2017).
Like-named read-outs stand apart in the source and are kept apart here.

How the values were obtained:
[1] = cited from earlier work
[2] = Vinpocetine, edaravone, oxiracetam in blood and brain tissue 0.5 h after intragastric administration, UPLC-MS (Example 6); assay type: in vivo; settings: rat, oral, SD rats, intragastric 100 mg/kg
Description: Treatment Group: LXN6, LXN7, LXN8 were made into suspensions respectively. Five SD rats were administered the suspensions at the dose of 100 mg/kg and the volume of 20 ml/kg by intragastric administration;
Control group: vinpocetine, edaravone, oxiracetam were made into suspension. Five SD rats were administered the suspension at the dose of 100 mg/kg and the volume of 20 ml/kg by intragastric administration;
The rats were drewd blood 0.5 h after administration, then sacrificed under anaesthesia. Brain tissues were taken to prepare brain homogenates. The content of active ingredient in the blood and brain tissues was detected by UPLC-MS.

MCAO forebrain ischemia = MCAO forebrain ischemia rats, infarction area, nerve regeneration, learning and memory (Example 6); assay type: in vivo; settings: 100 mg vinpocetine/edaravone/oxiracetam per kg, intragastric, 7 days after administration
Description: In addition, 70 rats of MCAO forebrain ischemia were prepared, and they were administrated with solvent saline, or administrated with LXN6, LXN7 or LXN8, containing vinpocetine, edaravone or oxiracetam, respectively, at a dosage of 100 mg vinpocetine/edaravone/oxiracetam per kg body weight, or administrated with vinpocetine, edaravone or oxiracetam at a dosage of 100 mg/kg.
Intragastric administration at an amount of 20 ml/kg was conducted, for 10 rats per group; Animals were sacrificed 7 days after administration, to observe the improvement rate of cerebral infarction area and the improvement rate of nerve regeneration, learning and memory ability.

[3] = Stilbene glucoside in blood and brain tissues 0.5 h after intragastric administration, UPLC-MS (Example 3); assay type: in vivo; settings: SD rats, 100 mg/kg stilbene glucoside, 0.5 h after administration
Description: Treatment Group: LXN2-1 and LXN2-2 were made into suspension. 5 SD rats were administered the suspension with the dose of 100 mg/kg stilbene glucoside and the volume of 20 ml/kg by intragastric administration;
Control group: stilbene glucoside extract was made into suspension. 5 SD rats were administered the suspension at the dose of 100 mg/kg stilbene glucoside and the volume of 20 ml/kg by intragastric administration;
The rats were drew blood 0.5 h after administration and then sacrificed under anaesthesia. Brain tissues were taken to prepare brain homogenates. The content of stilbene glucoside in the blood and brain tissues were detected by UPLC-MS.

[4] = test system: 4-VO local cerebral ischemia; assay: 4-VO local cerebral ischemia rats, nerve regeneration, learning and memory (Example 3); assay type: in vivo; settings: 4-VO rats, gavage, 7 days after administration
Description: In addition, 40 rats of 4-VO local cerebral ischemia were prepared and they were administered with solvent saline, 100 mg/kg […], […] and stilbene glucoside by gavage at the volume of 20 ml/kg, 10 rats per group; Animals were sacrificed 7 days after administration, to observe the improve rate of nerve regeneration, learning and memory.

| Compound | solubility in water [1] | Improvement rate of learning and memory (MCAO forebrain ischemia) | Infarction area (MCAO forebrain ischemia) [%] | Nerve regeneration rate (MCAO forebrain ischemia) [%] | Space exploration distance (MCAO forebrain ischemia) [cm] | other results |
| --- | --- | --- | --- | --- | --- | --- |
| COc1ccc([C@@H]2CC(=O)c3c(O)cc(O[C@@H]4O[C@H](CO[C@@H]5O[C@@H](C)[C@H](O)[C@@H](O)[C@H]5O)[C@@H](O)[C@H](O)[C@H]4O)cc3O2)cc1O [Hesperidin] | insoluble in water |  |  |  |  |  |
| NC(=O)CN1CC(O)CC1=O (centres unmarked) [Oxiracetam, oxiracetam] |  | 56.9 | 24.5 | 85 | 54.0 | concentration at 0.5 h ([2]; blood, read-out: Oxiracetam content in the blood): 82300 ng/mL; concentration at 0.5 h ([2]; brain, read-out: Oxiracetam content in the brain tissue): 173 ng/mL |
| CCOC(=O)C1=C[C@]2(CC)CCCN3CCc4c(n1c1ccccc41)[C@@H]32 [Vinpocetine, vinpocetine] |  | 59.9 | 23.1 | 87 | 56.2 | concentration at 0.5 h ([2]; blood, read-out: Vinpocetine content in the blood): 84400 ng/mL; concentration at 0.5 h ([2]; brain, read-out: Vinpocetine content in the brain tissue): 124 ng/mL |
| stilbene glucoside |  |  |  |  |  | Content of stilbene glucoside in brain tissues [3]: 40.2 ± 16.1 ng/g; Plasma concentration of stilbene glucoside [3]: 3350 ± 680 ng/mL; Improvement rate of learning and memory [4]: 31.6 ± 21.0%; Nerve regeneration rate [4]: 81.2 ± 35.6% |
| C[C@@H]1O[C@@H](OC[C@H]2O[C@@H](Oc3c(-c4ccc(O)c(O)c4)oc4cc(O)cc(O)c4c3=O)[C@H](O)[C@@H](O)[C@@H]2O)[C@H](O)[C@H](O)[C@H]1O [Rutin] | not soluble in water |  |  |  |  | solubility in boiling water ([1]; boiling water): soluble in boiling water |
| CC1=NN(c2ccccc2)C(=O)C1 [Edaravone, edaravone] |  | 45.1 | 24.1 | 80 | 51.0 | concentration at 0.5 h ([2]; blood, read-out: Edaravone content in the blood): 58300 ng/mL; concentration at 0.5 h ([2]; brain, read-out: Edaravone content in the brain tissue): 128 ng/mL |
| O=c1c(O)c(-c2ccc(O)cc2)oc2cc(O)cc(O)c12 [Kaempferol] | slightly soluble in water |  |  |  |  |  |
